According to patent US20230339970A1, “CASEIN KINASE 1 DELTA MODULATORS” (priority 2020, published 2023):

Columns and labels:
[1] = target: T1, human CSNK1D (Homo sapiens, UniProt P48730); experiment: Whole Cell nBRET CSNK1D Binding Assay; conditions: living CHO cells stably expressing human CSNK1D tagged with nanoluciferase; NanoBret tracer 130 nM; 2 hours at 37 C
T1 construct: expressed in transfected cells

[2] = target: T2, human recombinant GST cleaved CSNK1D (Homo sapiens, UniProt P48730); experiment: Purified Enzyme Assay (ADP-Glo CSNK1D Kinase Assay); format: biochemical; conditions: 2 nM CSNK1D; peptide substrate 150 μM; ATP 20 μM; 45 minutes at room temperature
T2 construct: GST (cleaved yes); purchased University of Dundee clone DU 19064
T2 sequence (P48730 whole entry): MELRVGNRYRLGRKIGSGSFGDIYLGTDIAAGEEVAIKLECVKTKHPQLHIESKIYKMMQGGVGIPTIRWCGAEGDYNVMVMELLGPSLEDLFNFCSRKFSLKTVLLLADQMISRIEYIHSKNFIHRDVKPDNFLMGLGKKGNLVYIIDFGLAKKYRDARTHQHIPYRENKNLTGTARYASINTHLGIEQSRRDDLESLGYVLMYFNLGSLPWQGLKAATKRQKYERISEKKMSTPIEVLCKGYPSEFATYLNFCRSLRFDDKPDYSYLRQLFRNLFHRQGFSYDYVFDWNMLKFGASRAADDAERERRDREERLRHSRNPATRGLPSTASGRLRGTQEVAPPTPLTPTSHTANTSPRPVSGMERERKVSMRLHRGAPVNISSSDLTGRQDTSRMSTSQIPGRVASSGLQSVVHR
How it was run: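 Percent activity derived from ADP-Glo quantification of ADP produced. Reactions: compound dose-response with human recombinant GST-cleaved CSNK1D, ATP and substrate peptide PLSRTL-pS-VASLPGL, incubated 45 min at room temperature.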

T1 sequence (P48730 whole entry): as above

Compound	IC50 [1] [nM]	IC50 [2] [nM]
C[C@@H]1n2nc(-c3ccc(F)cc3)c(-c3ccnc4[nH]ncc34)c2COC1(C)C (single isomer, unassigned) [Example 171]	6	1
COCC1(F)CCc2c(-c3ccnc4[nH]ncc34)c(-c3ccc(F)cn3)nn2C1 (single isomer, unassigned) [Example 301, (*R)-4-[6-Fluoro-2-(5-fluoro-2-pyridyl)-6-(methoxymethyl)-5,7-dihydro-4H-pyrazolo[1,5-a]pyridin-3-yl]-1H-pyrazolo[3,4-b]pyridine]	110	4
C[C@@H]1n2nc(-c3ccc(F)cn3)c(-c3ccnc4[nH]nc(Cl)c34)c2COC1(C)C (single isomer, unassigned) [Example 437, (*S)-3-(3-Chloro-1H-pyrazolo[3,4-b]pyridin-4-yl)-2-(5-fluoropyridin-2-yl)-6,6,7-trimethyl-6,7-dihydro-4H-pyrazolo[5,1-c][1,4]oxazine]	46	5
Fc1ccc(-c2nn3c(c2-c2ccnc4[nH]ncc24)OCC2(CC2)C3)nc1 [Example 460, 2′-(5-Fluoropyridin-2-yl)-3′-(1H-pyrazolo[3,4-b]pyridin-4-yl)-5′H,7′H-spiro[cyclopropane-1,6′-pyrazolo[5,1-b][1,3]oxazine]]	24	2
CC1(CF)CCc2c(-c3c(F)cnc4[nH]ncc34)c(-c3ccc(F)cn3)nn2C1 (single isomer, unassigned) [Example 293, (*S)-5-Fluoro-4-[6-(fluoromethyl)-2-(5-fluoro-2-pyridyl)-6-methyl-5,7-dihydro-4H-pyrazolo[1,5-a]pyridin-3-yl]-1H-pyrazolo[3,4-b]pyridine]	18	2
COc1cccc(-c2nn3c(c2-c2ccnc4[nH]ncc24)COC(C)(C)C3)n1 [Example 161, 2-(6-Methoxypyridin-2-yl)-6,6-dimethyl-3-(1H-pyrazolo[3,4-b]pyridin-4-yl)-6,7-dihydro-4H-pyrazolo[5,1-c][1,4]oxazine]	1400	26
CC1(C)Cn2nc(-c3ccc(F)cn3)c(-c3cc(CCC(F)(F)F)nc4[nH]ncc34)c2CO1 [Example 391, 2-(5-Fluoro-2-pyridyl)-6,6-dimethyl-3-[6-(3,3,3-trifluoropropyl)-1H-pyrazolo[3,4-b]pyridin-4-yl]-4,7-dihydropyrazolo[5,1-c][1,4]oxazine]	5380	258
COCC1(F)CCc2c(-c3c(F)cnc4[nH]ncc34)c(-c3ccc(F)cn3)nn2C1 (single isomer, unassigned) [Example 302, (*S)-5-Fluoro-4-[6-fluoro-2-(5-fluoro-2-pyridyl)-6-(methoxymethyl)-5,7-dihydro-4H-pyrazolo[1,5-a]pyridin-3-yl]-1H-pyrazolo[3,4-b]pyridine]	3250	132
CC1(C)Cn2nc(-c3ccc(F)cc3)c(-c3ccnc4[nH]ncc34)c2CO1 [Example 144, 2-(4-Fluorophenyl)-6,6-dimethyl-3-(1H-pyrazolo[3,4-b]pyridin-4-yl)-6,7-dihydro-4H-pyrazolo[5,1-c][1,4]oxazine]	3	1
C[C@@H]1CCc2c(-c3ccnc4[nH]ncc34)c(-c3ccc(F)cn3)nn21 [Example 20, 4-[(6R)-2-(5-Fluoro-2-pyridyl)-6-methyl-5,6-dihydro-4H-pyrrolo[1,2-b]pyrazol-3-yl]-1H-pyrazolo[3,4-b]pyridine]	411	20
COCC1(F)CCc2c(-c3cc(C(F)F)nc4[nH]ncc34)c(-c3ccc(F)cn3)nn2C1 (single isomer, unassigned) [Example 306, (*S)-6-(Difluoromethyl)-4-[6-fluoro-2-(5-fluoro-2-pyridyl)-6-(methoxymethyl)-5,7-dihydro-4H-pyrazolo[1,5-a]pyridin-3-yl]-1H-pyrazolo[3,4-b]pyridine]	68	8
CC(C)C(=O)Nc1cc(-c2c(-c3ccc(F)cn3)nn3c2COC(C)(C)C3)ccn1 [Example 132, N-(4-(2-(5-Fluoropyridin-2-yl)-6,6-dimethyl-6,7-dihydro-4H-pyrazolo[5,1-c][1,4]oxazin-3-yl)pyridin-2-yl)isobutyramide]	11	3
Cc1n[nH]c2nccc(-c3c(-c4ccc(F)cc4)nn4c3OCC3(C4)CC3(F)F)c12 (single isomer, unassigned) [Example 472, (*S)-2,2-Difluoro-2′-(4-fluorophenyl)-3′-(3-methyl-1H-pyrazolo[3,4-b]pyridin-4-yl)-5′H,7′H-spiro[cyclopropane-1,6′-pyrazolo[5,1-b][1,3]oxazine]]	597	69
Fc1ccc(-c2nn3c(c2-c2ccnc4[nH]ncc24)C2CCC3CC2)nc1 [Example 65, 2-(5-Fluoropyridin-2-yl)-3-(1H-pyrazolo[3,4-b]pyridin-4-yl)-4,5,6,7-tetrahydro-4,7-ethanopyrazolo[1,5-a]pyridine]	55	3
Cc1cc(-c2c(-c3ccc(F)cn3)nn3c2CC2(C3)CC2(F)F)c2cn[nH]c2n1 (single isomer, unassigned) [Example 261, (*R)-1′,1′-Difluoro-2-(5-fluoro-2-pyridyl)-3-(6-methyl-1H-pyrazolo[3,4-b]pyridin-4-yl)spiro[4,6-dihydropyrrolo[1,2-b]pyrazole-5,2′-cyclopropane]]	2670	63
Cc1nc(-c2c(-c3ccc(F)cc3)nn3c2COC(C(F)(F)F)C3)c2cn[nH]c2n1 (single isomer, unassigned) [Example 377, (*S)-2-(4-Fluorophenyl)-3-(6-methyl-1H-pyrazolo[3,4-d]pyrimidin-4-yl)-6-(trifluoromethyl)-6,7-dihydro-4H-pyrazolo[5,1-c][1,4]oxazine]	2480	46
Cc1cc(-c2c(-c3ccc(F)cn3)nn3c2CO[C@@H](C)C3)c2cn[nH]c2n1 (single isomer, unassigned) [Example 89]	275	9
[2H]C([2H])([2H])[C@]1(C(F)(F)F)Cn2nc(-c3ccc(F)cn3)c(-c3ccnc4[nH]ncc34)c2CO1 (single isomer, unassigned) [Example 423, (*R)-2-(5-Fluoropyridin-2-yl)-6-(methyl-d3)-3-(1H-pyrazolo[3,4-b]pyridin-4-yl)-6-(trifluoromethyl)-6,7-dihydro-4H-pyrazolo[5,1-c][1,4]oxazine]	1570	67
Fc1ccc(-c2nn3c(c2-c2ccnc4[nH]ncc24)COCC32CC2)cc1 [Example 106, 2′-(4-Fluorophenyl)-3′-(1H-pyrazolo[3,4-b]pyridin-4-yl)-4′H,6′H-spiro[cyclopropane-1,7′-pyrazolo[5,1-c][1,4]oxazine]]	137	9
CC1(C)Cn2nc(-c3ccc(F)cn3)c(-c3ccnc(NC(=O)CC(F)(F)F)c3)c2CO1 [Example 133, 3,3,3-Trifluoro-N-(4-(2-(5-fluoropyridin-2-yl)-6,6-dimethyl-6,7-dihydro-4H-pyrazolo[5,1-c][1,4]oxazin-3-yl)pyridin-2-yl)propenamide]	8	2
Cn1ncc2c(-c3c(-c4ccc(F)cn4)nn4c3COC(C)(C)C4)ccnc21 [Example 153, 2-(5-Fluoro-2-pyridyl)-6,6-dimethyl-3-(1-methylpyrazolo[3,4-b]pyridin-4-yl)-4,7-dihydropyrazolo[5,1-c][1,4]oxazine]	3710	176
Cn1cc2nccc(-c3c(-c4ccc(F)cn4)nn4c3COC(C)(C)C4)c2n1 [Example 138, 2-(5-Fluoropyridin-2-yl)-6,6-dimethyl-3-(2-methyl-2H-pyrazolo[4,3-b]pyridin-7-yl)-6,7-dihydro-4H-pyrazolo[5,1-c][1,4]oxazine]	999	106
CC1COCc2c(-c3ccnc(CO)c3)c(-c3ccc(F)cc3)nn21 (centres unmarked) [Example 90, (4-(2-(4-Fluorophenyl)-7-methyl-6,7-dihydro-4H-pyrazolo[5,1-c][1,4]oxazin-3-yl)pyridin-2-yl)methanol]	352	16
Fc1ccc(-c2nn3c(c2-c2ccnc4[nH]ncc24)C[C@H](F)C3)cc1 [Example 11, (S)-4-(5-Fluoro-2-(4-fluorophenyl)-5,6-dihydro-4H-pyrrolo[1,2-b]pyrazol-3-yl)-1H-pyrazolo[3,4-b]pyridine]	4	1
[2H]C([2H])([2H])C1(C([2H])([2H])[2H])Cn2nc(-c3ccc(F)cn3)c(-c3ccn4nccc4c3)c2CO1 [Example 396, 2-(5-Fluoropyridin-2-yl)-6,6-bis(methyl-d3)-3-(pyrazolo[1,5-a]pyridin-5-yl)-6,7-dihydro-4H-pyrazolo[5,1-c][1,4]oxazine]	292	22
COCC1(F)CCc2c(-c3c(F)c(C)nc4[nH]ncc34)c(-c3ccc(F)cn3)nn2C1 (single isomer, unassigned) [Example 309, (*R)-5-Fluoro-4-[6-fluoro-2-(5-fluoro-2-pyridyl)-6-(methoxymethyl)-5,7-dihydro-4H-pyrazolo[1,5-a]pyridin-3-yl]-6-methyl-1H-pyrazolo[3,4-b]pyridine]	1320	97
Cc1cc(-c2c(-c3ccc(F)cc3)nn3c2COC[C@@H]3C)c2cn[nH]c2n1 (single isomer, unassigned) [Example 93, (*S)-2-(4-Fluorophenyl)-7-methyl-3-(6-methyl-1H-pyrazolo[3,4-b]pyridin-4-yl)-6,7-dihydro-4H-pyrazolo[5,1-c][1,4]oxazine]	297	10
Fc1ccc(-c2nn3c(c2-c2ccnc4[nH]ncc24)OCCCC3)cc1 [Example 216, 2-(4-Fluorophenyl)-3-(1H-pyrazolo[3,4-b]pyridin-4-yl)-5,6,7,8-tetrahydropyrazolo[5,1-b][1,3]oxazepane]	38	2
